Results reported in patent US11091482B2, “Isoxazolyl-carbonyloxy azabicyclo[3.2.1]octanyl compounds as FXR activators” (ARDELYX, INC., priority 2016, dated 2021).

Columns and labels:
[1] = tested on: fibroblast growth factor 19 (FGF19) secretion in human ileum; assay: Human ileum APECCS (FGF19 secretion); assay type: cell-based; details: for EC50: Fibroblast; for Activity, %: relative to GW4064
[2] = target: ligand binding domain of human FXR (Homo sapiens (Human), UniProt Q96RI1); assay: FXR ligand binding assay (LanthaScreen FRET); details: for Emax: read-out: % Efficacy; for FXR pEC50 / % Efficacy: FXR ligand binding assay; for FXR pEC50: -log EC50; for % Efficacy: extent of activation relative to GW4064;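 on all read-outs here: TR-FRET coactivator recruitment: ligand-induced binding of fluorescein-labelled SRC2-2 peptide to GST-tagged FXR LBD detected via Tb anti-GST antibody, serial compound dilutions, 3-parameter logistic fit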
Sequence of ligand binding domain of human FXR (Q96RI1 262-486): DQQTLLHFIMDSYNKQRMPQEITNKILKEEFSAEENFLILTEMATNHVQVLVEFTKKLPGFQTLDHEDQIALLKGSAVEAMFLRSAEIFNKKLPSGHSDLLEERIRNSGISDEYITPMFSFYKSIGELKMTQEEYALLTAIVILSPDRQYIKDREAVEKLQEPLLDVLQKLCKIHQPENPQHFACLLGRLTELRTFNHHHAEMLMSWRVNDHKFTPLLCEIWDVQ

[3] = target: human Farnesoid X receptor ligand-binding domain/Gal4 DNA binding domain chimera (Homo sapiens (Human), UniProt Q96RI1); assay: Cell-based FXR beta-lactamase reporter assay (FXR-UAS-bla HEK 293T cells); details: for Emax: HEK-293T, read-out: % Efficacy; for EC50 / FXR pEC50 / % Efficacy: cellular FXR beta-lactamase reporter assay; for EC50 / FXR pEC50: -log EC50; for EC50: read-out: FXR pEC50 (converted); for % Efficacy: extent of activation relative to GW4064
Sequence of human Farnesoid X receptor ligand-binding domain/Gal4 DNA binding domain chimera (Q96RI1 262-486, change not shown): as the sequence (Q96RI1 262-486) above
Summary of the method: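 Stable FXR-UAS-bla HEK 293T cells in phenol red-free DMEM with 2% charcoal-stripped FBS were exposed to 3-fold serial dilutions of compound. Beta-lactamase reporter activity was read by CCF4 FRET loss, exciting at 409 nm with blue emission at 447 nm. The FRET change versus concentration was fit to a 3-parameter logistic equation.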

Row | Structure (SMILES) | EC50 [1] [nM] | Activity, % [1] [%] | Emax [2] [%] | Emax [3] [%] | EC50 [3] [nM] | FXR pEC50 [2] | % Efficacy [2] [%] | FXR pEC50 [3] | % Efficacy [3] [%]
1 | CC[C@H]1[C@@H](O)[C@@H]2[C@H](CC[C@]3(C)[C@@H]([C@H](C)CCC(=O)O)CC[C@@H]23)[C@@]2(C)CC[C@@H](O)C[C@@H]12 [OCA, Obeticholic acid] | 501 | 82.6 ± 19 | – | – | – | – | – | – | –
2 | CC(C)c1onc(-c2c(Cl)cccc2Cl)c1COc1ccc(/C=C/c2cccc(C(=O)O)c2)c(Cl)c1 [GW4064] | 316 | 100 ± 0 | – | – | – | – | – | – | –
3 | COc1cc2nc(N3[C@@H]4CC[C@H]3C[C@@H](OC(=O)c3c(-c5c(F)cccc5F)noc3C3CC3)C4)sc2cc1C(=O)O [Compound I-18, 2-[(1R,3R,5S)-3-[5-cyclopropyl-3-(2,6-difluorophenyl)-1,2-oxazole-4-carbonyloxy]-8-azabicyclo[3.2.1]octan-8-yl]-5-methoxy-1,3-benzothiazole-6-carboxylic Acid] | – | – | 66 | 99 | 251 | – | – | – | –
4 | N#Cc1ccc(N2[C@@H]3CC[C@H]2C[C@@H](OC(=O)c2c(-c4c(Cl)cccc4Cl)noc2C2CC2)C3)cc1O [Compound I-53, (1R,3R,5S)-8-(4-cyano-3-hydroxyphenyl)-8-azabicyclo[3.2.1]octan-3-yl 5-cyclopropyl-3-(2,6-dichlorophenyl)-1,2-oxazole-4-carboxylate] | – | – | 58 | 81 | 251 | – | – | – | –
5 | O=C(O)c1cc(F)c2nc(N3[C@@H]4CC[C@H]3C[C@@H](OC(=O)c3c(-c5c(Cl)cccc5OC(F)F)noc3C3CC3)C4)sc2c1 [Compound I-15, 2-[(1R,3R,5S)-3-{3-[2-chloro-6-(difluoromethoxy)phenyl]-5-cyclopropyl-1,2-oxazole-4-carbonyloxy}-8-azabicyclo[3.2.1]octan-8-yl]-4-fluoro-1,3-benzothiazole-6-carboxylic Acid] | – | – | – | – | – | 7.4 | 71 | 7.4 | 108
6 | O=C(O)c1ncc(N2[C@@H]3CC[C@H]2C[C@@H](OC(=O)c2c(-c4c(Cl)cccc4Cl)noc2C2CC2)C3)cn1 [Compound I-54, 5-[(1R,3R,5S)-3-[5-Cyclopropyl-3-(2,6-dichlorophenyl)-1,2-oxazole-4-carbonyloxy]-8-azabicyclo[3.2.1]octan-8-yl]pyrimidine-2-carboxylic Acid] | – | – | 46 | 115 | > 20000 | – | – | – | –
7 | O=C(O)c1cc(OC(F)(F)F)c2nc(N3[C@@H]4CC[C@H]3C[C@@H](OC(=O)c3c(-c5c(Cl)cccc5Cl)noc3C3CC3)C4)sc2c1 [Compound I-9, 2-[(1R,3R,5S)-3-[5-cyclopropyl-3-(2,6-dichlorophenyl)-1,2-oxazole-4-carbonyloxy]-8-azabicyclo[3.2.1]octan-8-yl]-4-(trifluoromethoxy)-1,3-benzothiazole-6-carboxylic Acid] | – | – | 136 | 119 | 3.16 | – | – | – | –
8 | CC(C)(C)c1onc(-c2c(Cl)cccc2Cl)c1C(=O)OC1C[C@H]2CC[C@@H](C1)N2c1nc2c(F)cc(C(=O)O)cc2s1 (single isomer, unassigned) [Compound I-25] | – | – | – | – | – | 7.2 | – | 7.6 | –
9 | O=C(O)c1cc(F)c2nc(N3[C@@H]4CC[C@H]3C[C@@H](OC(=O)c3c(-c5c(F)cccc5F)noc3C3CC3)C4)sc2c1 [Compound I-16, 2-[(1R,3R,5S)-3-[5-cyclopropyl-3-(2,6-difluorophenyl)-1,2-oxazole-4-carbonyloxy]-8-azabicyclo[3.2.1]octan-8-yl]-4-fluoro-1,3-benzothiazole-6-carboxylic Acid] | – | – | – | – | – | 7.4 | 47 | 6.7 | 110
10 | CN1c2cc(N3[C@@H]4CC[C@H]3C[C@@H](OC(=O)c3c(-c5c(Cl)cccc5Cl)noc3C3CC3)C4)ccc2C(=O)C1(F)F [Compound I-30, (1R,3R,5S)-8-(2,2-difluoro-1-methyl-3-oxo-2,3-dihydro-1H-indol-6-yl)-8-azabicyclo[3.2.1]octan-3-yl 5-cyclopropyl-3-(2,6-dichlorophenyl)-1,2-oxazole-4-carboxylate] | – | – | 40 | 82 | 100 | – | – | – | –
11 | O=C(O)c1cc(C2CC2)c2nc(N3[C@@H]4CC[C@H]3C[C@@H](OC(=O)c3c(-c5c(Cl)cccc5Cl)noc3C3CC3)C4)sc2c1 [Compound I-12, 2-[(1R,3R,5S)-3-[5-cyclopropyl-3-(2,6-dichlorophenyl)-1,2-oxazole-4-carbonyloxy]-8-azabicyclo[3.2.1]octan-8-yl]-4-(cyclopropyl)-1,3-benzothiazole-6-carboxylic Acid] | – | – | 125 | 112 | 7.94 | – | – | – | –
12 | O=C(NS(=O)(=O)CC1CC1)c1ccc(N2[C@@H]3CC[C@H]2C[C@H](OC(=O)c2c(-c4c(Cl)cccc4Cl)noc2C2CC2)C3)cc1 [Compound I-49, (1R,3S,5S)-8-[4-(cyclopropylmethanesulfonylcarbamoyl)phenyl]-8-azabicyclo[3.2.1]octan-3-yl 5-cyclopropyl-3-(2,6-dichlorophenyl)-1,2-oxazole-4-carboxylate] | – | – | – | – | – | 8 | 128 | 8.1 | 107
13 | Cn1cc(C(=O)O)c2ccc(N3[C@@H]4CC[C@H]3C[C@@H](OC(=O)c3c(-c5c(Cl)cccc5Cl)noc3C3CC3)C4)cc21 [Compound I-28, 6-[(1R,3R,5S)-3-[5-cyclopropyl-3-(2,6-dichlorophenyl)-1,2-oxazole-4-carbonyloxy]-8-azabicyclo[3.2.1]octan-8-yl]-1-methyl-1H-indole-3-carboxylic Acid] | – | – | 94 | 117 | 25.1 | – | – | – | –
14 | O=C(Cc1c(-c2c(Cl)cccc2Cl)noc1C1CC1)O[C@H]1C[C@H]2CC[C@@H](C1)N2c1nc2c(F)cc(C(=O)O)cc2s1 [Compound I-32, 2-[(1R,3R,5S)-3-({2-[5-cyclopropyl-3-(2,6-dichlorophenyl)-1,2-oxazol-4-yl]acetyl}oxy)-8-azabicyclo[3.2.1]octan-8-yl]-4-fluoro-1,3-benzothiazole-6-carboxylic Acid] | – | – | – | – | – | 7.4 | 34 | 6.4 | 86
15 | Cc1onc(-c2c(Cl)cccc2Cl)c1C(=O)O[C@H]1C[C@H]2CC[C@@H](C1)N2c1nc2c(F)cc(C(=O)O)cc2s1 [Compound I-23, 2-[(1R,3S,5S)-3-[3-(2,6-dichlorophenyl)-5-methyl-1,2-oxazole-4-carbonyloxy]-8-azabicyclo[3.2.1]octan-8-yl]-4-fluoro-1,3-benzothiazole-6-carboxylic Acid] | – | – | – | – | – | 7.1 | 37 | 6.8 | 100
16 | O=C(NCCS(=O)(=O)O)c1cc(F)c2nc(N3[C@@H]4CC[C@H]3C[C@@H](OC(=O)c3c(-c5c(Cl)cccc5Cl)noc3C3CC3)C4)sc2c1 [Compound I-5, 2-({2-[(1R,3R,5S)-3-[5-cyclopropyl-3-(2,6-dichlorophenyl)-1,2-oxazole-4-carbonyloxy]-8-azabicyclo[3.2.1]octan-8-yl]-4-fluoro-1,3-benzothiazol-6-yl}formamido)ethane-1-sulfonic Acid] | – | – | 77 | 72 | 2510 | – | – | – | –
17 | CCCCCS(=O)(=O)NC(=O)c1ccc(N2[C@@H]3CC[C@H]2C[C@@H](OC(=O)c2c(-c4c(Cl)cccc4Cl)noc2C2CC2)C3)cc1 [Compound I-46, (1R,3R,5S)-8-{4-[(pentane-1-sulfonyl)carbamoyl]phenyl}-8-azabicyclo[3.2.1]octan-3-yl 5-cyclopropyl-3-(2,6-dichlorophenyl)-1,2-oxazole-4-carboxylate] | – | – | – | – | – | 8.2 | – | 8.5 | 110
18 | O=C(O)c1ccc(N2[C@@H]3CC[C@H]2C[C@@H](OC(=O)c2c(-c4c(Cl)cccc4Cl)noc2C2CC2)C3)cc1F [Compound I-41, 4-[(1R,3R,5S)-3-[5-cyclopropyl-3-(2,6-dichlorophenyl)-1,2-oxazole-4-carbonyloxy]-8-azabicyclo[3.2.1]octan-8-yl]-2-fluorobenzoic acid] | – | – | 92 | 117 | 20 | 7.7 | – | – | –
19 | CS(=O)(=O)NC(=O)c1cc(F)c2nc(N3[C@@H]4CC[C@H]3C[C@@H](OC(=O)c3c(-c5c(Cl)cccc5Cl)noc3C3CC3)C4)sc2c1 [Compound I-6, (1R,3R,5S)-8-[4-fluoro-6-(methanesulfonylcarbamoyl)-1,3-benzothiazol-2-yl]-8-azabicyclo[3.2.1]octan-3-yl 5-cyclopropyl-3-(2,6-dichlorophenyl)-1,2-oxazole-4-carboxylate] | – | – | 110 | 109 | 15.8 | – | – | – | –
